Measured values reported in the NIST ThermoML archive (doi:10.1016/j.fluid.2014.05.018).
Values joined by “and” are separate entries in the source; they are usually repeats but may differ in a detail not shown here. Identical values can stand only once. ± gives the expanded uncertainty stated by the source.

Details: Liquid, Ebulliometric method (Recirculating still)

vapor or sublimation pressure (313.2 K) | vapor or sublimation pressure (333.2 K) | vapor or sublimation pressure (353.2 K) | vapor or sublimation pressure (373.2 K) | vapor or sublimation pressure (403.2 K) | SMILES
536 ± 7 kPa | 880 ± 8 kPa | 1363 ± 10 kPa | 2014 ± 12 kPa | 3377 ± 16 kPa | CC(C)C [2-methylpropane]
379 ± 7 kPa | 645 ± 7 kPa | 1013 ± 8 kPa | 1525 ± 11 kPa | 2660 ± 14 kPa | CCCC [butane]
18 ± 6 kPa | 50 ± 6 kPa and 47 ± 6 kPa | 110 ± 6 kPa and 108 ± 6 kPa | 225 ± 6 kPa and 224 ± 6 kPa | 585 ± 7 kPa and 572 ± 7 kPa | CCO [ethanol]
